Measured values as given in US11401247B2, “Thiazole-5-carboxylic acid derivative and preparation method and use thereof” (XIANGBEI WELMAN PHARMACEUTICAL CO., LTD, priority 2018, dated 2022).
Like-named read-outs stand apart in the source and are kept apart here.

Tests used:
[1] = system: ICR mice; conditions: for Autopsy results of survival animals: 3000 mg/kg ig; for Abnormal reactions within 12 hours from ig administration: F compounds 3000 mg/kg; for Number of dead animals: 10 mice; for death, preliminary experiments / toxic reactions, preliminary experiments: intragastric 1600 mg/kg
[2] = system: hyperuricemia rats; test: dose-effect relationship study in rat hyperuricemia model; format: in vivo, SD rats; conditions: 3 h after first administration, model group 226.2 ± 35.2, blank 37.4 ± 5.1
Experimental: In order to further study the pharmacological activity of the compounds of the present disclosure, as well as the relationship between the activity and the dose, this example selected several compounds of the present disclosure to conduct a dose-effect relationship study in a rat model, in which exogenous uric acid was administered and uric acid decomposition was inhibited simultaneously. A positive drug was used as a control.
1. Experimental animals: Male SPF grade SD rats weighing 110-150 grams. […] The animals were free to drink and eat. All cages were sterilized at 121° C., feed was sterilized by irradiation, and water was sterilized purified water.
2. Experimental drugs: F-1C, F-2C, F-3A, 1.0 g for each compound; febuxostat (positive drug) 1.0 g; febuxostat ethyl ester (ethyl 2-[3-cyano-4-isobutoxyphenyl]-4-methylthiazole-5-carboxylate) 1.0 g;
3.1 Formulation of F-1C, F-2C, F-3A: Tor each of the compounds, take 100 mg, add 20 ml of 0.5% sodium carboxymethyl cellulose and grind, and then dilute to 100 ml.
3.2 Take 100 mg of febuxostat, add 20 ml of 0.5% sodium carboxymethyl cellulose and grind, and then dilute to 100 ml.
Except the blank group, the rest rats were modeled for 15 days and then their serum uric acid levels were detected. The rats were equally divided into several groups according to the detected uric acid levels thereof.
F-1C, F-2C and F-3A groups: each compound was taken orally at 3 doses, i.e., 2.5, 5 and 10 mg/kg; QD; and 10 animals for each dose group.
Febuxostat group: oral administration of 10 mg/kg, QD, and 10 animals.
Febuxostat ethyl ester group: oral administration of 10 mg/kg, QD, and 10 animals.
The blank group was not administrated with any drug. Each of the rest groups was orally administrated with oteracil potassium 1 g/kg and uric acid 0.3 g/kg and intraperitoneally injected with 0.1 g/kg uric acid (dissolved in 0.5% sodium carboxymethyl cellulose), once a day on schedule, for 15 days. 0.5 ml of blood samples was drawn from orbit before the experiment and […] after the modelling, respectively, to separated serum for determining serum uric acid levels.
After successful modeling, the rats were equally divided into several groups according to the serum uric acid values thereof, and then were intragastrically administrated with the test drugs. Three hours after the first administration, 0.5 ml of orbital venous blood was drawn from the orbit of the rats, centrifuged at 3000 RPM for 15 min, to obtain for determining the serum uric acid level of each rat.
Data were expressed by mean±standard deviation (′x±SD), and analyzed by Excel 7.0 and SPPS 13.0 for Windows software. Q-test was used for the comparison between groups, and the self-paired t-test was used for the comparison of a group before and after administration. It indicated significant difference when P<0.05.

[3] = system: hyperuricemia rats; test: pharmacodynamic screening in rat hyperuricemia model (exogenous uric acid administered, uric acid decomposition inhibited); format: in vivo, SD rats; conditions: for Serum uric acid level, Value after 3 h of drug administration: 3 h after first administration, model group 174.4 ± 39.9, blank 53.9 ± 12.8; for uric acid-lowering effect (in words): 3 h after drug administration, febuxostat and ethyl ester 14 mg/kg oral; for uric acid-lowering effect (in words) / p, uric acid level 3 h after drug administration compared with the blank group: F compounds 10 mg/kg; for p, uric acid level 3 h after drug administration compared with the blank group: febuxostat 14 mg/kg oral
[4] = in vivo; conditions: mouse, po
[5] = formal test, all dose groups, febuxostat high-dose group
[6] = formal test, febuxostat high-dose group

**Q.** With Cc1nc(-c2ccc(OCC(C)C)c(C#N)c2)sc1C(=O)OC(C)Cl (stereo not drawn) [Compound F-1C] as the molecule, how does the “Autopsy results of survival animals” value ([1]; formal test) read?
**A.** The value was “No obvious abnormalities were observed in the organs”.

**Q.** What about the “animal deaths within 24 hours from the administration” value (from here on “animal deaths within 24 hours”) [1, 5] of the same molecule?
**A.** The value was “no animal deaths were observed”.

**Q.** What about the “Abnormal reactions within 12 hours from ig administration” value (from here on “Abnormal reactions within 12 hours”) [1, 6] of the same molecule?
**A.** Its value is “no abnormalities were observed”.

**Q.** And the “Number of dead animals” value ([1]; ig 3000 mg/kg)?
**A.** Its value is 0.

**Q.** And the “death, preliminary experiments” value ([1]; mice)?
**A.** The value was “no animal died”.

**Q.** What about the “toxic reactions, preliminary experiments” value ([1]; mice) of the same molecule?
**A.** The value was “no obvious toxicity symptom was observed”.

**Q.** And the “Serum uric acid content, Value after 3 h of drug administration” value (“Serum uric acid content, Value after 3 h” for short) ([2]; 2.5 mg/kg oral)?
**A.** The value was 189.8 ± 25.3^a3 μmol/L.

**Q.** What about the “Serum uric acid content, Value after 3 h” value ([2]; 5 mg/kg oral) of the same molecule?
**A.** Its value is 146.9 ± 19.5^a3, b3 μmol/L.

**Q.** And the “Serum uric acid content, Value after 3 h” value ([2]; 10 mg/kg oral)?
**A.** Its value is 100.1 ± 25.8^a3, b3, c3 μmol/L.

**Q.** And the “Serum uric acid level, Value after 3 h of drug administration” value (shortened to “Serum uric acid level, Value after 3 h”) ([3]; 10 mg/kg oral)?
**A.** Its value is 64.2 ± 28.1^a3b3 μmol/L.

**Q.** And the “uric acid-lowering effect (in words)” value [3]?
**A.** The value was “very obvious uric acid-lowering effects”.

**Q.** What about the “p, uric acid level 3 h after drug administration compared with the blank group” value [3] of the same molecule?
**A.** Its value is “no significant difference”.

**Q.** And the LD50 at 14 days [4]?
**A.** The LD50 at 14 days was 3000 mg/kg.

**Q.** And the LD50 at 14 days ([4]; 3000 mg/kg)?
**A.** Its LD50 at 14 days is at least 3000 mg/kg.

**Q.** With Cc1nc(-c2ccc(OCC(C)C)c(C#N)c2)sc1C(=O)NC(CC(=O)O)C(=O)O (stereo not drawn) [Compound F-2C] as the molecule, how does the “Autopsy results of survival animals” value ([1]; formal test) read?
**A.** Its value is “No obvious abnormalities were observed in the organs”.

**Q.** What about the “animal deaths within 24 hours” value [1, 5] of the same molecule?
**A.** The value was “no animal deaths were observed”.

**Q.** And the “Abnormal reactions within 12 hours” value [1, 6]?
**A.** Its value is “no abnormalities were observed”.

**Q.** What about the “Number of dead animals” value ([1]; ig 3000 mg/kg) of the same molecule?
**A.** Its value is 0.

**Q.** What about the LD50/Maximum dose ([1]; ig once, mice, 14 days observation, Bliss method, febuxostat: LD50, F compounds: maximum administration dose, no deaths) of the same molecule?
**A.** The LD50/Maximum dose was 3000 mg/kg.

**Q.** What about the “death, preliminary experiments” value ([1]; mice) of the same molecule?
**A.** Its value is “no animal died”.

**Q.** What about the “toxic reactions, preliminary experiments” value ([1]; mice) of the same molecule?
**A.** The value was “no obvious toxicity symptom was observed”.

**Q.** And the “Serum uric acid content, Value after 3 h” value ([2]; 2.5 mg/kg oral)?
**A.** The value was 172.7 ± 33.9^a3 μmol/L.

**Q.** What about the “Serum uric acid content, Value after 3 h” value ([2]; 5 mg/kg oral) of the same molecule?
**A.** Its value is 131.9 ± 29.7^a3, b3 μmol/L.

**Q.** What about the “Serum uric acid content, Value after 3 h” value ([2]; 10 mg/kg oral) of the same molecule?
**A.** Its value is 107.3 ± 21.2^a3, b3, c3 μmol/L.

**Q.** And the “Serum uric acid level, Value after 3 h” value ([3]; 10 mg/kg oral)?
**A.** Its value is 68.6 ± 19.2^a3b3c1 μmol/L.

**Q.** With Cc1nc(-c2ccc(OCC(C)C)c(C#N)c2)sc1C(=O)OCCN(C)CCO [Compound F-3A] as the molecule, how does the “Autopsy results of survival animals” value ([1]; formal test) read?
**A.** Its value is “No obvious abnormalities were observed in the organs”.

**Q.** What about the “animal deaths within 24 hours” value [1, 5] of the same molecule?
**A.** Its value is “no animal deaths were observed”.

**Q.** And the “Abnormal reactions within 12 hours” value [1, 6]?
**A.** The value was “no abnormalities were observed”.

**Q.** What about the “Number of dead animals” value ([1]; ig 3000 mg/kg) of the same molecule?
**A.** The value was 0.

**Q.** What about the “death, preliminary experiments” value ([1]; mice) of the same molecule?
**A.** Its value is “no animal died”.

**Q.** What about the “toxic reactions, preliminary experiments” value ([1]; mice) of the same molecule?
**A.** Its value is “no obvious toxicity symptom was observed”.

**Q.** And the “Serum uric acid content, Value after 3 h” value ([2]; 2.5 mg/kg oral)?
**A.** The value was 173.4 ± 32.7^a3, b3 μmol/L.

**Q.** And the “Serum uric acid content, Value after 3 h” value ([2]; 5 mg/kg oral)?
**A.** Its value is 137.6 ± 24.3^a3, b3 μmol/L.

**Q.** And the “Serum uric acid content, Value after 3 h” value ([2]; 10 mg/kg oral)?
**A.** Its value is 82.3 ± 16.8^a3, b3, c3 μmol/L.

**Q.** And the “Serum uric acid level, Value after 3 h” value ([3]; 10 mg/kg oral)?
**A.** The value was 64.1 ± 16.1^a3b3 μmol/L.

**Q.** What about the “uric acid-lowering effect (in words)” value [3] of the same molecule?
**A.** Its value is “very obvious uric acid-lowering effects”.

**Q.** What about the “p, uric acid level 3 h after drug administration compared with the blank group” value [3] of the same molecule?
**A.** The value was “no significant difference”.

**Q.** And the LD50 at 14 days [4]?
**A.** The LD50 at 14 days was 3000 mg/kg.

**Q.** What about the LD50 at 14 days ([4]; 3000 mg/kg) of the same molecule?
**A.** Its LD50 at 14 days is at least 3000 mg/kg.

**Q.** Which results are given for Cc1nc(-c2ccc(OCC(C)C)c(C#N)c2)sc1C(=O)NC1C(O)OC(CO)C(O)C1O (stereo not drawn) [Compound F-4A]?
**A.** Autopsy results of survival animals ([1]; formal test): No obvious abnormalities were observed in the organs; Abnormal reactions within 12 hours from ig administration [1, 6]: no abnormalities were observed; Number of dead animals ([1]; ig 3000 mg/kg): 0; toxic reactions, preliminary experiments ([1]; mice): no obvious toxicity symptom was observed; animal deaths within 24 hours from the administration ([1]; mouse, in vivo): no animal deaths were observed; Serum uric acid level, Value after 3 h of drug administration ([3]; 10 mg/kg oral): 71.4 ± 19.6^a3b3c1 μmol/L; LD50 at 14 days [4]: 3000 mg/kg; LD50 at 14 days ([4]; 3000 mg/kg): ≥ 3000 mg/kg

**Q.** Which “Serum uric acid content, Value after 3 h” value ([2]; 10 mg/kg oral) does the source give for CCOC(=O)c1sc(-c2ccc(OCC(C)C)c(C#N)c2)nc1C [Febuxostat ethyl ester, ethyl 2-[3-cyano-4-isobutoxyphenyl]-4-methylthiazole-5-carboxylate, reference compound] here?
**A.** Its value is 177.3 ± 38.6^a3 μmol/L.

**Q.** And the “Serum uric acid level, Value after 3 h” value ([3]; 14 mg/kg oral)?
**A.** The value was 113.9 ± 24.9^a3b3c3 μmol/L.

**Q.** And the “uric acid-lowering effect (in words)” value [3]?
**A.** Its value is “inferior to febuxostat”.

**Q.** What does the source list for Cc1nc(-c2ccc(OCC(C)C)c(C#N)c2)sc1C(=O)O [Febuxostat, 2-[3-cyano-4-isobutoxyphenyl]-4-methylthiazole-5-carboxylic acid, reference compound]?
**A.** animal deaths within 24 hours from the administration [1, 5]: several animals of the high-dose group of febuxotan died; Number of dead animals ([1]; ig 327.7 mg/kg): 0; Number of dead animals ([1]; ig 409.6 mg/kg): 0; Number of dead animals ([1]; ig 512 mg/kg): 1; Number of dead animals ([1]; ig 640 mg/kg): 3; Number of dead animals ([1]; ig 800 mg/kg): 6; Cause of death ([1]; mice after ig administration): toxicity to the urinary system; death, preliminary experiments ([1]; mice): caused death in several mice; Serum uric acid content, Value after 3 h of drug administration ([2]; 10 mg/kg oral): 140.8 ± 33.5^a3, b3 μmol/L; Serum uric acid level, Value after 3 h of drug administration ([3]; 14 mg/kg oral): 86.6 ± 17.5^a3b3c3 μmol/L; uric acid-lowering effect (in words) [3]: good effect on lowering uric acid; p, uric acid level 3 h after drug administration compared with the blank group [3]: < 0.001; LD50 at 14 days [4]: 701 ± 47.6 mg/kg
